# How the values were obtained:
# [1] = Clearance in Sprague-Dawley rat at 1 mg/kg, iv; format: ADME, organism-based; details: in vivo
# Cytochrome P450 2D6 = Cytochrome P450 2D6 (Homo sapiens, UniProt P10635); assay: Inhibition of CYP2D6 (unknown origin); format: ADME
# [2] = AUC (0 to infinity) in Sprague-Dawley rat at 1 mg/kg, iv; format: ADME, organism-based; set-up: dose 1 mg/kg, time infinity, route intravenous; details: in vivo
# Cytochrome P450 2C9 = Cytochrome P450 2C9 (Homo sapiens, UniProt P11712); assay: Inhibition of CYP2C9 (unknown origin); format: ADME
# Chain of Cytochrome P450 2C9 (P11712 whole entry): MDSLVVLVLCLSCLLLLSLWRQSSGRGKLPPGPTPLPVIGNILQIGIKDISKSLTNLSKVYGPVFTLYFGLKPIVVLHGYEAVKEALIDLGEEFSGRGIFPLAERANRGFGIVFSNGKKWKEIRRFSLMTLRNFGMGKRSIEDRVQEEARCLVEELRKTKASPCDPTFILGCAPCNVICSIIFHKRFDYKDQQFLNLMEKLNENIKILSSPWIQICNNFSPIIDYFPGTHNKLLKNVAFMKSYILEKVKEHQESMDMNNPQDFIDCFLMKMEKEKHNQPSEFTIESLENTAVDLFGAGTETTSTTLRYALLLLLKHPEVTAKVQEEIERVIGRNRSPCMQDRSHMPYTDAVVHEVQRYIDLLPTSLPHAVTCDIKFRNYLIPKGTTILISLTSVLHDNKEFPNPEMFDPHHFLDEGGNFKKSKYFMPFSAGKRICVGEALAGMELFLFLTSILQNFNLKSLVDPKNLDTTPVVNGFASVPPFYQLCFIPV
# [3] = AUC (0 to infinity) in Sprague-Dawley rat at 5 mg/kg, po; format: ADME, organism-based; set-up: dose 5 mg/kg, route oral, time infinity; details: in vivo
# Cytochrome P450 3A4 = Cytochrome P450 3A4 (Homo sapiens, UniProt P08684); assay: Inhibition of CYP3A4 (unknown origin); format: ADME
# Chain of Cytochrome P450 3A4 (P08684 whole entry): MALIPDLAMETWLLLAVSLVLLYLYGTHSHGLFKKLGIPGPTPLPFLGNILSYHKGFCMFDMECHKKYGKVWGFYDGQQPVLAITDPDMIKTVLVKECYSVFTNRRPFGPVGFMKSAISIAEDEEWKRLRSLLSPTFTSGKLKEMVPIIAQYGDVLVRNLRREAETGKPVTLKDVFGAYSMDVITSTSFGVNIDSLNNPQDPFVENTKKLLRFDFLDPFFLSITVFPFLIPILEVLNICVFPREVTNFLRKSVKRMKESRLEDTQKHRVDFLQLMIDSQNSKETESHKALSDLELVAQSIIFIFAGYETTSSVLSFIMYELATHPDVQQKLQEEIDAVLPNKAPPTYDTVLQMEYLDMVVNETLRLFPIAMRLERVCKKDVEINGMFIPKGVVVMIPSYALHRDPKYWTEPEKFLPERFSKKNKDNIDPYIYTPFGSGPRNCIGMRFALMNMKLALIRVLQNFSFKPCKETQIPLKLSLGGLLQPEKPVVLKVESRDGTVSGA
# Cytochrome P450 2C19 = Cytochrome P450 2C19 (Homo sapiens, UniProt P33261); assay: Inhibition of CYP2C19 (unknown origin); format: ADME
# Chain of Cytochrome P450 2C19 (P33261 whole entry, the tested form may be a part): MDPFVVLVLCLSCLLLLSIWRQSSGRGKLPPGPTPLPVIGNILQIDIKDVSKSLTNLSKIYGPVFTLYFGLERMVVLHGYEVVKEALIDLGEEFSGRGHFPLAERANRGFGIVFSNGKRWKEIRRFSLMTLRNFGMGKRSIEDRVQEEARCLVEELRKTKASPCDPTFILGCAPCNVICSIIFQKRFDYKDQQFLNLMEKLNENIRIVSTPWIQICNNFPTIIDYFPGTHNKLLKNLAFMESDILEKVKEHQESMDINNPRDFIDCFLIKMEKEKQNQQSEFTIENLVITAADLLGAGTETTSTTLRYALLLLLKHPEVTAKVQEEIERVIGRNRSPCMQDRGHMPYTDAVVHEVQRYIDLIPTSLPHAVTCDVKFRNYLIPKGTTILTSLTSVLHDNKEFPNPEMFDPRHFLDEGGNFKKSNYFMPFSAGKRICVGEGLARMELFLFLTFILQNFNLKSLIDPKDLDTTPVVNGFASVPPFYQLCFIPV
# [4] = target: T1, Nuclear receptor ROR-beta (Homo sapiens, UniProt Q92753); assay: Binding affinity to recombinant human RORbeta LBD (201 to 452 residues) expressed in Escherichia coli BL21 (DE3) GOLD by 1,8-ANS dye-based thermofluor assay
# T1 sequence (Q92753 whole entry): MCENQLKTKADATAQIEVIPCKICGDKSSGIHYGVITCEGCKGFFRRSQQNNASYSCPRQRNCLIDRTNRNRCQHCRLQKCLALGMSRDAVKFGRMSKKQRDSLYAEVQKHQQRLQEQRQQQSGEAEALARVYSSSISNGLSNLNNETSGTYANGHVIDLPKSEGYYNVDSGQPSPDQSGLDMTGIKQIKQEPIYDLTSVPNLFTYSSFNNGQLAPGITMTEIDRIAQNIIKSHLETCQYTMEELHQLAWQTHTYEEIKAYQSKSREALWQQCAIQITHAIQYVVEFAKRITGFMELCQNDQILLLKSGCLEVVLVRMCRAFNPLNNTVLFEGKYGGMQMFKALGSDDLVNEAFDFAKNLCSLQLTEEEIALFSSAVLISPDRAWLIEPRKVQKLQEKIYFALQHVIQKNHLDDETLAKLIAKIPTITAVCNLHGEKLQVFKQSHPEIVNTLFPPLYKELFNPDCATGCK
# [5] = Tmax in Sprague-Dawley rat at 5 mg/kg, po; format: ADME, organism-based; details: in vivo
# [6] = Initial plasma concentration in Sprague-Dawley rat at 1 mg/kg, iv; format: ADME, organism-based
# PXR (NR1I2) [7] = target: T2, PXR (NR1I2) (Homo sapiens, UniProt O75469); assay: […] at PXR LBD (unknown origin) expressed in HEK293 cells […] at 1 uM after 16 hrs by luciferase reporter gene assay relative to rifampicin; format: ADME, cell-based; details: HEK293 cells expressing PXR LBD, read-out: Efficacy
# T2 sequence (O75469 whole entry): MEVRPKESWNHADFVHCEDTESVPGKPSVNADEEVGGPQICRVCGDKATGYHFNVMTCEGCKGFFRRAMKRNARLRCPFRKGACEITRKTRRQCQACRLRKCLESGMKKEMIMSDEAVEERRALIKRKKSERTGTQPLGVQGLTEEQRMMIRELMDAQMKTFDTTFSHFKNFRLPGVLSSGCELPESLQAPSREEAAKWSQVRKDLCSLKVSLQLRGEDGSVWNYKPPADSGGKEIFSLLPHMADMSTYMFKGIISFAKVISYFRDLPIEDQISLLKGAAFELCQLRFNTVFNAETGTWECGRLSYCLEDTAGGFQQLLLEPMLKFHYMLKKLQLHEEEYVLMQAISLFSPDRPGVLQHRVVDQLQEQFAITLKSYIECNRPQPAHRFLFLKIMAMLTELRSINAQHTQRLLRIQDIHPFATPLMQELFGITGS
# [8] = Half life in rat microsomes; format: ADME, Microsome
# [9] = Oral bioavailability in Sprague-Dawley rat at 5 mg/kg; format: ADME, organism-based; details: in vivo
# Cytochrome P450 1A2 = target: T3, Cytochrome P450 1A2 (Homo sapiens, UniProt P05177); assay: Inhibition of CYP1A2 (unknown origin); format: ADME
# T3 sequence (P05177 whole entry): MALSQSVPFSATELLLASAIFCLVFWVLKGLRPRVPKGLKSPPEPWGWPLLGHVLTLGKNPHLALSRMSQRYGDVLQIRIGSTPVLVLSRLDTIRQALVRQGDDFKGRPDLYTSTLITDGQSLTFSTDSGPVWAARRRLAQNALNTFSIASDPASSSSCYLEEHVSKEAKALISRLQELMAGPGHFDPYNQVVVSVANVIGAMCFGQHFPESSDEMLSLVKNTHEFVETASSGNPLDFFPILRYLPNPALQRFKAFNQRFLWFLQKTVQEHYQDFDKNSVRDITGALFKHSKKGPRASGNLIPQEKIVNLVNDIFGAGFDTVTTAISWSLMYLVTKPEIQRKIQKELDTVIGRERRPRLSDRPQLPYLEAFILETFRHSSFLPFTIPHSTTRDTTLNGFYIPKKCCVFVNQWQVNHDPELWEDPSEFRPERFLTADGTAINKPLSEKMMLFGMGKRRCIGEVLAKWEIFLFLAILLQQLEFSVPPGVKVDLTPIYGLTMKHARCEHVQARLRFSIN
# [10] = Half life in human microsomes; format: ADME, Microsome
# [11] = Thermodynamic solubility of the compound in 30 mM phosphate buffer at 10 mM at pH 7 after 2 to 5 days by UV-HPLC analysis; format: physicochemical; details: read-out: Therm_solubility
# [12] = Cmax in Sprague-Dawley rat at 5 mg/kg, po; format: ADME, organism-based; set-up: dose 5 mg/kg, route oral; details: in vivo
# PXR (NR1I2) [13] = target: T2, PXR (NR1I2); assay: […] at PXR LBD (unknown origin) expressed in HEK293 cells […] at 5 uM after 16 hrs by luciferase reporter gene assay relative to rifampicin; format: ADME, cell-based; details: HEK293 cells expressing PXR LBD, read-out: Efficacy
# [14] = Half life in Sprague-Dawley rat at 1 mg/kg, iv; format: ADME, organism-based; details: in vivo
# Cytochrome P450 2C8 = target: T4, Cytochrome P450 2C8 (Homo sapiens, UniProt P10632); assay: Inhibition of CYP2C8 (unknown origin); format: ADME
# T4 sequence (P10632 whole entry): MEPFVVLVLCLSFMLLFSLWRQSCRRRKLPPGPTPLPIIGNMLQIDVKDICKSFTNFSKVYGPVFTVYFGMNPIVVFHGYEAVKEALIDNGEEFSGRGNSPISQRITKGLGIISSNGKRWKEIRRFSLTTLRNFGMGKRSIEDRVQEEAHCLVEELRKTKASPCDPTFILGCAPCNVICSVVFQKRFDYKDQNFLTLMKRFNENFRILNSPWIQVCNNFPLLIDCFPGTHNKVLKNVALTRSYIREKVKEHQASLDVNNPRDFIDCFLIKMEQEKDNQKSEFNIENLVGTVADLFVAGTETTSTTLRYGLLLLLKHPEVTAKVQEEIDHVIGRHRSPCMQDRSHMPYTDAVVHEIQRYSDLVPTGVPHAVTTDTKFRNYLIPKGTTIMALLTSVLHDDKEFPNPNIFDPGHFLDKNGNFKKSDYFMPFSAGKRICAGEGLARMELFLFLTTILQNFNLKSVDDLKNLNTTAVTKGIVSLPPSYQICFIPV
# [15] = Terminal half life in Sprague-Dawley rat at 5 mg/kg, po; format: ADME, organism-based; details: in vivo, read-out: beta t1/2 (converted)
# [16] = Volume of distribution at steady state in Sprague-Dawley rat at 1 mg/kg, iv; format: ADME, organism-based; details: in vivo, read-out: Vdss
# PXR (NR1I2) [17] = target: T2, PXR (NR1I2); assay: […] at PXR LBD (unknown origin) expressed in HEK293 cells […] at 10 uM after 16 hrs by luciferase reporter gene assay relative to rifampicin; format: ADME, cell-based; details: HEK293 cells expressing PXR LBD, read-out: Efficacy
# [18] = Tmax in Sprague-Dawley rat at 2.5 mg/kg, po; format: ADME, organism-based; details: in vivo
# [19] = AUC (0 to infinity) in Sprague-Dawley rat at 0.5 mg/kg, iv; format: ADME, organism-based; set-up: dose 0.5 mg/kg, route intravenous, time infinity; details: Sprague-Dawley, in vivo
# [20] = Thermodynamic solubility of the compound in fasted state simulated intestinal […] after 2 to 5 days by UV-HPLC analysis; format: physicochemical; details: read-out: Therm_solubility
# [21] = Oral bioavailability in Sprague-Dawley rat at 2.5 mg/kg; format: ADME, organism-based; details: in vivo
# [22] = Clearance in Sprague-Dawley rat at 0.5 mg/kg, iv; format: ADME, organism-based; details: in vivo
# [23] = AUC (0 to infinity) in Sprague-Dawley rat at 2.5 mg/kg, po; format: ADME, organism-based; set-up: dose 2.5 mg/kg, time infinity, route oral; details: in vivo
# [24] = Half life in Sprague-Dawley rat at 0.5 mg/kg, iv; format: ADME, organism-based; details: in vivo
# [25] = Cmax in Sprague-Dawley rat at 2.5 mg/kg, po; format: ADME, organism-based; set-up: dose 2.5 mg/kg, route oral; details: in vivo
# [26] = Initial plasma concentration in Sprague-Dawley rat at 0.5 mg/kg, iv; format: ADME, organism-based
# [27] = Terminal half life in Sprague-Dawley rat at 2.5 mg/kg, po; format: ADME, organism-based; details: in vivo, read-out: beta t1/2 (converted)
# [28] = Volume of distribution at steady state in Sprague-Dawley rat at 0.5 mg/kg, iv; format: ADME, organism-based; details: in vivo, read-out: Vdss
# Chain of Cytochrome P450 2D6 (P10635 whole entry): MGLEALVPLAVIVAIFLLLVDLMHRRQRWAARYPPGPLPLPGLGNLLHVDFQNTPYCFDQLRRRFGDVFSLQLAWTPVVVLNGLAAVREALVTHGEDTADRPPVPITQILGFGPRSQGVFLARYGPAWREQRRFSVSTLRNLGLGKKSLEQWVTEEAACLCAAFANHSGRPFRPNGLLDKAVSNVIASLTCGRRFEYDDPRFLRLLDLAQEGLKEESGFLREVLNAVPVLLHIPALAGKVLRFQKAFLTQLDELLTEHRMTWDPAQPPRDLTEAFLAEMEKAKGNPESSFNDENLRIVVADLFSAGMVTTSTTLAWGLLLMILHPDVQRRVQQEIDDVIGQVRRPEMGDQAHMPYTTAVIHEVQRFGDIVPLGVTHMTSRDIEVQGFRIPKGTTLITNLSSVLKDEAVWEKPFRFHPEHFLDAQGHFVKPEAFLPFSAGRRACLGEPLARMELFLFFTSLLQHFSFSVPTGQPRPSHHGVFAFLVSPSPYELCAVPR
compound,measurement,setting,value
C[C@H](NS(=O)(=O)c1ccc(-c2sc(C(=O)NC3CCS(=O)(=O)CC3)nc2CC2CC2)c2ccccc12)C(F)(F)F,clearance,[1],21.6 mL/min/kg
same,INH,Cytochrome P450 2D6,> 10 µM
same,AUC(0-inf),[2],792 ng·h/mL
same,INH,Cytochrome P450 2C9,2.9 µM
same,AUC(0-inf),[3],1700 ng·h/mL
same,INH,Cytochrome P450 3A4,> 10 µM
same,INH,Cytochrome P450 2C19,> 10 µM
same,Kd,[4],> 69 µM
same,Tmax,[5],1.7 h
same,C0,[6],470 ng/mL
same,"Emax at 16 h, 1 µM",PXR (NR1I2) [7],99%
same,half-life,[8],2.35 h
same,bioavailability,[9],42.5%
same,INH,Cytochrome P450 1A2,> 10 µM
same,half-life,[10],1.67 h
same,solubility thermodynamic at 10000 µM,[11],< 4 µM
same,Cmax,[12],276 ng/mL
same,"Emax at 16 h, 5 µM",PXR (NR1I2) [13],131%
same,half-life,[14],3.8 h
same,INH,Cytochrome P450 2C8,> 10 µM
same,half-life,[15],2.6 h
same,Vd,[16],3.4 L/kg
CC(C)(C)NS(=O)(=O)c1ccc(-c2sc(C(=O)N[C@H]3C[C@H](C(=O)O)C3)nc2CC2CCCCC2)c(Cl)c1,clearance,[1],107 mL/min/kg
same,INH,Cytochrome P450 2D6,> 10 µM
same,AUC(0-inf),[2],162 ng·h/mL
same,INH,Cytochrome P450 2C9,> 10 µM
same,AUC(0-inf),[3],328 ng·h/mL
same,INH,Cytochrome P450 3A4,> 10 µM
same,INH,Cytochrome P450 2C19,> 10 µM
same,Kd,[4],> 75 µM
same,Tmax,[5],0.8 h
same,C0,[6],2300 ng/mL
same,"Emax at 16 h, 10 µM",PXR (NR1I2) [17],178%
same,"Emax at 16 h, 1 µM",PXR (NR1I2) [7],101%
same,half-life,[8],1.22 h
same,bioavailability,[9],20%
same,INH,Cytochrome P450 1A2,> 10 µM
same,half-life,[10],1.68 h
same,solubility thermodynamic at 10000 µM,[11],6.6 µM
same,Cmax,[12],130 ng/mL
same,half-life,[14],0.5 h
same,INH,Cytochrome P450 2C8,3.5 µM
same,half-life,[15],2.1 h
same,Vd,[16],2.3 L/kg
CCC(C)(C)NS(=O)(=O)c1ccc(-c2sc(C(=O)N[C@H]3C[C@H](C(=O)O)C3)nc2CC2CCCCC2)c(Cl)c1C,INH,Cytochrome P450 2D6,> 10 µM
same,INH,Cytochrome P450 2C9,3.2 µM
same,Tmax,[18],0.8 h
same,AUC(0-inf),[19],170 ng·h/mL
same,INH,Cytochrome P450 3A4,> 10 µM
same,solubility thermodynamic,[20],59 µM
same,bioavailability,[21],18%
same,INH,Cytochrome P450 2C19,> 10 µM
same,clearance,[22],98.8 mL/min/kg
same,"Emax at 16 h, 10 µM",PXR (NR1I2) [17],34%
same,"Emax at 16 h, 1 µM",PXR (NR1I2) [7],21%
same,half-life,[8],0.733 h
same,INH,Cytochrome P450 1A2,> 10 µM
same,half-life,[10],0.45 h
same,AUC(0-inf),[23],142 ng·h/mL
same,solubility thermodynamic at 10000 µM,[11],< 1 µM
same,half-life,[24],0.4 h
same,Cmax,[25],52 ng/mL
same,C0,[26],1410 ng/mL
same,half-life,[27],3.1 h
same,INH,Cytochrome P450 2C8,1.8 µM
same,Vd,[28],2.1 L/kg

# — ChEMBL document CHEMBL4118122, “Identification and biological evaluation of thiazole-based inverse agonists of RORγt” (Bioorg Med Chem Lett, 2018)
